Experimental findings from patent publication US6867320B2, “Substituted phenylalkanoic acid derivatives and use thereof” (Asahi Kasei Pharma Corporation, priority 2002, dated 2005) are described below.

Each structure is given as a SMILES string.

This assay concerns PGE2 production from IL-1β-stimulated MG-63 cells. Briefly: Suppressing action on PGE2 production from IL-1β-stimulated MG-63 cells. The conditions noted are these: Homo sapiens, IL-1β 1 ng/ml, 18 hours, read-out: PGE2 production suppression ratio. It is filed as cell-based. From the text:
1. Suppressing Action on PGE2 Production from IL-1β-Stimulated MG-63 Cells (1) Method for Measurement
An action of suppressing PGE2 production caused by interleukin (IL) 1β as an inflammatory stimulant was studied by the following method. Cells of MG-63, which is a human osteosarcoma cell line (purchased from Dainippon Pharmaceutical), were suspended in EMEM medium (GIBCO) containing 10% fetal bovine serum (BioFluid), and then inoculated to each well of 96-well culture plate at a density of 2×10^4 cells/well and cultured overnight. The medium was changed to EMEM medium containing 0.5% fetal bovine serum, and then a test compound was added with each well. Human interleukin-1β (ENDOGEN) was further added as an inflammatory stimulant at a final concentration of 1 ng/ml. The cells were further cultured for 18 hours. The culture supernatant was collected, and the PGE2 concentration in the culture supernatant was measured by using EIA kit (CAYMAN). By using a well which was not added with the stimulant as a negative control and a well which was added only with the stimulant as a positive control, suppression ratios on PGE2 production were calculated from produced amounts of PGE2 in the well added with the test compound using the following equation. PGE2 production suppression ratio=[1−(C−B)/(A−B)]×100 • A: PGE2 production amount of positive control • B: PGE2 production amount of negative control • C: PGE2 production amount in well added with test compound
Consider `O=C(O)CCc1cc(Cl)c(OCC2CCCC2)c(-c2ccc3[nH]ccc3c2)c1` [Compound 263, 3-[3-chloro-4-cyclopentylmethyloxy-5-(1H-indol-5-yl)phenyl]propionic acid], for which the inhibition at 0.4 µM was not below 50%.
As for `Cn1ccc2cc(-c3cc(CCC(=O)O)cc(N)c3OCC3CCCC3)ccc21` [Compound 269, 3-[3-amino-4-cyclopentylmethyloxy-5-(1-methyl-1H-indol-5-yl)phenyl]propionic acid], the figure is not below 50%; as for `Cc1[nH]c2ccc(-c3cc(CCC(=O)O)ccc3OCC3CCCCC3)cc2c1C` [Compound 273, 3-[4-cyclohexylmethyloxy-3-(2,3-dimethyl-1H-indol-5-yl)phenyl]propionic acid], not below 50%; as for `O=C(O)CCc1ccc(OCC2CCCC2)c(-c2ccc3occc3c2)c1` [Compound 277, 3-[3-(benzo[b]furan-5-yl)-4-cyclopentylmethyloxyphenyl]propionic acid], not below 50%.
The value for `Cc1oc2ccc(-c3cc(CCC(=O)O)ccc3OCC3CCCCC3)cc2c1C` [Compound 279, 3-[4-cyclohexylmethyloxy-3-(2,3-dimethylbenzo[b]furan-5-yl)phenyl]propionic acid] was not below 50%; that for `Cc1nc2cc(-c3cc(CCC(=O)O)ccc3OCC3CCCC3)ccc2s1` [Compound 283, 3-[4-cyclopentylmethyloxy-3-(2-methylbenzothiazol-5-yl)phenyl]propionic acid] was not below 50%; that for `Nc1nc2cc(-c3cc(CCC(=O)O)ccc3OCC3CCCC3)ccc2s1` [Compound 285, 3-[3-(2-aminobenzothiazol-5-yl)-4-cyclopentylmethyloxyphenyl]propionic acid] was not below 50%.
The value for `CNc1nc2ccc(-c3cc(CCC(=O)O)ccc3OCC3CCCC3)cc2s1` [Compound 297, 3-[4-cyclopentylmethyloxy-3-(2-methylaminobenzothiazol-6-yl)phenyl]propionic acid] was not below 50%; that for `Cn1c(=N)sc2cc(-c3cc(CCC(=O)O)ccc3OCC3CCCC3)ccc21` [Compound 303, 3-[4-cyclopentylmethyloxy-3-(2-imino-3-methyl-2,3-dihydrobenzothiazol-6-yl)phenyl]propionic acid] was not below 50%.
As for `CN=c1sc2cc(-c3cc(CCC(=O)O)ccc3OCC3CCCC3)ccc2n1C` [Compound 305, 3-{4-cyclopentylmethyloxy-3-[3-methyl-2-(methylimino)-2,3-dihydrobenzothiazol-6-yl]phenyl}propionic acid], the inhibition at 0.4 µM was not below 50%.
As for `COc1nc2ccc(-c3cc(CCC(=O)O)ccc3OCC3CCCC3)cc2s1` [Compound 306, 3-[4-cyclopentylmethyloxy-3-(2-methoxybenzothiazol-6-yl)phenyl]propionic acid], the figure is not below 50%; as for `Cc1nc2ccc(-c3cc(CCC(=O)O)ccc3OCC3CCCC3)cc2s1` [Compound 308, 3-[4-cyclopentylmethyloxy-3-(2-methylbenzothiazol-6-yl)phenyl]propionic acid], not below 50%; as for `O=C(O)CCc1ccc(OCC2CCCC2)c(-c2ccc3[nH]c(=S)sc3c2)c1` [Compound 309, 3-[4-cyclopentylmethyloxy-3-(2-thioxo-2,3-dihydrobenzothiazol-6-yl)phenyl]propionic acid], not below 50%.
For `O=C(O)CCc1ccc(OCC2CCCC2)c(-c2ccc3[nH]c(=O)sc3c2)c1` [Compound 310, 3-[4-cyclopentylmethyloxy-3-(2-oxo-2,3-dihydrobenzothiazol-6-yl)-phenyl]propionic acid], the inhibition at 0.4 µM was not below 50%.
As for `Cn1c(=O)sc2cc(-c3cc(CCC(=O)O)ccc3OCC3CCCC3)ccc21` [Compound 313, 3-[4-cyclopentylmethyloxy-3-(2-oxo-3-methyl-2,3-dihydrobenzothiazol-6-yl)phenyl]propionic acid], the figure is not below 50%; as for `O=C(O)CCc1ccc(OCC2CCCC2)c(-c2cnc3ccccc3c2)c1` [Compound 315, 3-[4-cyclopentylmethyloxy-3-(quinolin-3-yl)phenyl]propionic acid], not below 50%.
Consider `O=C(O)CCc1ccc(OCC2CCCCC2)c(-c2ccc3ncccc3c2)c1` [Compound 319, 3-[4-cyclohexylmethyloxy-3-(quinolin-6-yl)phenyl]propionic acid], for which the inhibition at 0.4 µM was not below 50%.
On to `O=C(O)CCc1ccc(OCC2CCCCC2)c(-c2ccc3[nH]c(=O)ccc3c2)c1` [Compound 321, 3-[4-cyclohexylmethyloxy-3-(2-oxo-1,2-dihydroquinolin-6-yl)-phenyl]propionic acid], for which the inhibition at 0.4 µM is not below 50%.
Turning to `O=C(O)CCc1ccc(OCc2ccccc2)c(-c2ccc3ccccc3c2)c1` [Compound 323, 3-[4-benzyloxy-3-(naphthalen-2-yl)phenyl]propionic acid], the inhibition at 0.4 µM was not below 50%.
On to `CC(C)(C)c1ccc(COc2ccc(CCC(=O)O)cc2-c2ccc3[nH]ccc3c2)cc1` [Compound 327, 3-[4-(4-t-butylphenylmethyloxy)-3-(1H-indol-5-yl)phenyl]propionic acid], for which the inhibition at 0.4 µM was not below 50%.
The value for `O=C(O)CCc1ccc(OC2CCCCC2)c(-c2ccc3ncsc3c2)c1` [Compound 330, 3-[3-(benzothiazol-6-yl)-4-cyclohexyloxyphenyl]propionic acid] was not below 50%; that for `COC(=O)CCc1cc(-c2ccc3ccccc3c2)c(OC2CCCC2)c([N+](=O)[O-])c1` [Compound 331, methyl 3-[4-cyclopentyloxy-3-(naphthalen-2-yl)-5-nitrophenyl]propionate] was not below 50%; that for `Nc1cc(CCC(=O)O)cc(-c2ccc3ccccc3c2)c1OC1CCCC1` [Compound 333, 3-[3-amino-4-cyclopentyloxy-5-(naphthalen-2-yl)phenyl]propionic acid] was not below 50%.
As for `O=C(O)CCc1cc(O)c(OCC2CCCC2)c(-c2ccc3ccccc3c2)c1` [Compound 568, 3-[4-cyclopentylmethyloxy-3-hydroxy-5-(naphthalen-2-yl)phenyl]propionic acid], the figure is not below 50%.
The value for `Cc1cc(CCC(=O)O)cc(-c2ccc3ccccc3c2)c1OC1CCCC1` [Compound 570, 3-[4-cyclopentyloxy-3-methyl-5-(naphthalen-2-yl)phenyl]propionic acid] was not below 50%; that for `Cc1cc(CCC(=O)O)cc(-c2ccc3[nH]ccc3c2)c1OC1CCCC1` [Compound 571, 3-[4-cyclopentyloxy-3-(1H-indol-5-yl)-5-methylphenyl]propionic acid] was not below 50%.
For `Cc1n[nH]c2ccc(-c3cc(CCC(=O)O)ccc3OC3CCCC3)cc12` [Compound 574, 3-[4-cyclopentyloxy-3-(3-methyl-1H-indazol-5-yl)phenyl]propionic acid], the inhibition at 0.4 µM was not below 50%.
The value for `Cc1nn(C)c2ccc(-c3cc(CCC(=O)O)ccc3OC3CCCC3)cc12` [Compound 576, 3-[4-cyclopentyloxy-3-(1,3-dimethyl-1H-indazol-5-yl)phenyl]propionic acid] was not below 50%.
As for `COc1cc(CCC(=O)O)cc(-c2ccc3[nH]ccc3c2)c1OC1CCCC1` [Compound 578, 3-[4-cyclopentyloxy-3-(1H-indol-5-yl)-5-methoxyphenyl]propionic acid], the figure is not below 50%; as for `COc1cc(CCC(=O)O)cc(-c2ccc3c(ccn3C)c2)c1OC1CCCC1` [Compound 580, 3-[4-cyclopentyloxy-3-methoxy-5-(1-methyl-1H-indol-5-yl)phenyl]propionic acid], not below 50%; as for `CCn1ccc2cc(-c3cc(CCC(=O)O)cc(OC)c3OC3CCCC3)ccc21` [Compound 582, 3-[4-cyclopentyloxy-3-(1-ethyl-1H-indol-5-yl)-5-methoxyphenyl]propionic acid], not below 50%.
As for `Cc1cc2cc(-c3cc(CCC(=O)O)ccc3OCC3CCCC3)ccc2[nH]1` [Compound 584, 3-[4-cyclopentylmethyloxy-3-(2-methyl-1H-indol-5-yl)phenyl]propionic acid], the inhibition at 0.4 µM was not below 50%.
Take `CNc1cc(CCC(=O)O)cc(-c2ccc3c(cnn3C)c2)c1OC1Cc2ccccc2C1` [Compound 587, 3-[4-(indan-2-yloxy)-3-(N-methylamino)-5-(1-methyl-1H-indazol-5-yl)phenyl]propionic acid]: the inhibition at 0.4 µM was not below 50%.
As for `CCCOc1ccc(CCC(=O)O)cc1-c1ccc2[nH]ccc2c1` [Compound 588, 3-[4-n-propyloxy-3-(1H-indol-5-yl)phenyl]propionic acid], the figure is not below 50%.
